According to patent US5627263A, “Integrin-binding peptides” (La Jolla Cancer Research Foundation, priority 1995, dated 1997):
Where a SMILES comes first, the peptide text is derived from it. Bridges are numbered along the chain shown (N, C = ends).

What was measured:
α5 β1 integrin [1] = target: α5 β1 integrin (Homo sapiens, UniProt P05556+P08648); assay: 125I-fibronectin binding assay, competing peptides; details: microtiter wells coated with α5 β1, 1 hr; FIG. 1; read-out: IC50, inhibition of 125I-fibronectin binding to α5 β1
Method: The α5 β1 integrin was bound to α5 specific antibody-coated wells by incubating 300 μl of a placental extract per well in TBS buffer containing 0.1M octylglucoside, 1 mM CaCl2, 1 mM MnCl2 and proteinase inhibitors overnight at 4° C., as described by Pytela et al. (1987), supra. Alternatively, the α5β1 integrin was directly coated on plastic as described above. The wells were extensively washed with TBS containing 0.1% NP-40. ^125 I-labeled fibronectin (100,000 cpm per well) was incubated in the presence of competing peptides for 1 hr at 25° C. in 100 μl volume of TBS containing 0.1% NP-40 and 1 mM MnCl2, as described by Koivunen et al. (1993), supra. After repeated washing, the bound radioactivity was quantitated with a gamma counter.
Initially, CRRETAWAC [SEQ ID NO:6] was examined for its ability to inhibit binding of fibronectin, which is the natural ligand for α5 β1. Briefly, ^125 I-fibronectin was incubated for 1 hr in the presence of competing peptides in microtiter wells coated with α5 β1. Following incubation, the wells were washed and bound radioactivity was determined with a gamma counter.

α5 β1 integrin [2] = target: T1, α5 β1 integrin (UniProt G3HZ55+P08648); assay: Attachment of B2/α27 cells to immobilized GACRRETAWACGA peptide and its inhibition; format: cell-based, human; details: EDTA 10 mM; FIG. 8
T1 construct: expressed in transfected cells; host or cells: CHO B2/α27
Source text: Cell lines expressing fibronectin-binding integrins were used to determine peptide activities against these integrins in the cell attachment assay described by Ruoslahti et al., Meth. Enzymol. 144:803-831 (1982), which is incorporated herein by reference. Human plasma fibronectin was iodinated as described by Morla and Ruoslahti, J. Cell Biol. 118:421-429 (1992), which is incorporated herein by reference. Vitronectin was obtained from Telios Pharmaceuticals (San Diego, Calif.). […] Peptide was coated on plastic by incubating at 37° C. for 2 hr in phosphate buffered saline containing 0.25% glutaraldehyde to crosslink the peptide. Free binding sites on the plastic were blocked using BSA. Approximately 1×10^5 cells per well were allowed to attach for 1 hr in the presence or absence of competing peptides. Bound cells were quantitated by staining with 0.1% amido black.
In addition to the inhibition of cell attachment to natural ligands, attachment and inhibition assays were performed using the […] [SEQ ID NO:3] peptide as substrate. The microtiter well were coated with […] [SEQ ID NO:3] using glutaraldehyde as described above. […] Bound cells were quantitated by staining with 0.1% amido black.

| IC50 (α5 β1 integrin [1]) [nM] | Inhibition of cell attachment to immobilized RRETAWA peptide by EDTA (α5 β1 integrin [2]) | Compound |
| --- | --- | --- |
| ~8 |  | CC(C)C[C@H](NC(=O)[C@@H]1CSSC[C@H](NC(=O)[C@H](C)NC(=O)CN)C(=O)N[C@@H](CCCNC(=N)N)C(=O)NCC(=O)N[C@@H](CC(=O)O)C(=O)N1)C(=O)NCC(=O)N[C@@H](C)C(=O)O [CRGDC, GA*CRGDC*LGA] (H-GACRGDCLGA-OH; disulfide 3-7) |
| ~8 |  | C[C@H](NC(=O)CNC(=O)[C@@H]1CSSC[C@H](NC(=O)[C@H](C)NC(=O)CN)C(=O)N[C@@H](CCCNC(=N)N)C(=O)N[C@@H](CCCNC(=N)N)C(=O)N[C@@H](CCC(=O)O)C(=O)N[C@@H]([C@@H](C)O)C(=O)N[C@@H](C)C(=O)N[C@@H](Cc2c[nH]c3ccccc23)C(=O)N[C@@H](C)C(=O)N1)C(=O)O [CRRETAWAC, GA*CRRETAWAC*GA] (H-GACRRETAWACGA-OH; disulfide 3-11) |
|  | inhibited | O=C(O)CN(CCN(CC(=O)O)CC(=O)O)CC(=O)O [EDTA] |
